Assay results: patent publication US10844023B2 (Washington University, priority 2017, dated 2020)
pEC50: −log10 of the molar value. * marks the point of attachment. FITC = O=C1OC2(c3ccc(O)cc3Oc3cc(O)ccc32)c2ccc(NC(=S)*)cc21

Experiments:
[1] = tested on: ALS and HD patient-derived fibroblasts; experiment: Mitochondrial health assays in ALS and HD patient-derived fibroblasts; format: cell-based, human
Description: HD patient-derived fibroblast cell lines (GM04693 from patient and GM05539 from patient) were purchased from Invitrogen. ALS patient-derived fibroblasts (ALS 1: ND29509 from patient having SOD1 mutation; ALS 2: ND30327 having FUS1 mutation) and fibroblasts of control healthy individuals were purchased from Coriell Institute, USA. All fibroblast cultures were maintained in MEM supplemented with 15% (v/v) FBS and 1% (v/v) penicillin/streptomycin at 37° C. in 5% CO2-95% air. Galactose media was used, to increase mitochondria-dependent metabolism oxidative phosphorylation. Human fibroblasts were switched to grow for 48 h in DMEM deprived of glucose and containing galactose (4.5 g/I), 1% FBS, 5 mM sodium pyruvate and 2 mM L-glutamine for the studies.
Cells cultured in 8-well chamber slides were washed with cold PBS, fixed in 4% formaldehyde, and permeabilized with 0.1% Triton X-100. After incubation with 2% normal goat serum (to block nonspecific staining), fixed cells were incubated overnight at 4° C. with TOM20 antibody (1:500) (Santa Cruz, USA). Cells were washed with PBS and incubated for 60 minutes with FITC-conjugated goat anti-rabbit IgG (1:500 dilution). The cells were then washed gently with PBS and counterstained with Hoechst 33342 (1:10,000 dilution, Molecular Probes) to visualize nuclei. The coverslips were mounted with Slow-fade anti-fade reagent (Invitrogen), and images were acquired at 60×using an All-in-One Fluorescence Microscope BZ-X700 (Keyence).
Cells were incubated with tetra-methyl-rhodamine methyl ester (TMRM, 25 nM, Invitrogen) in HBSS (Hank's balanced salt solution) for 30 min at 37° C., per the manufacture's protocol, and the fluorescence was analyzed to measure mitochondrial membrane potential. All data were normalized with respect to the fluorescence intensity of control cells. To determine mitochondrial ROS production, cells were treated with 5 μM MitoSOX™ Red, a mitochondrial superoxide indicator (Invitrogen) for 20 min at 37° C., according to the manufacturer's protocol, and fluorescence was analyzed using SpectraMax M2e (Molecular devices).

Mfn2 null MEFs = experiment: Mitochondrial elongation (aspect ratio) fusogenicity assay; format: cell-based, mouse; set-up: % long compare to B: dose or concentration left out as unconfirmed; settings: for Fusogenic activity: mitochondrial elongation / fusion; for % long compare to B: mitochondrial elongation relative to Cpd B (B01 = 100), Mfn2 null MEFs, compound overnight as printed (FIG. 48)
[2] = tested on: cultured neurons expressing MFN2 T105M; experiment: Cultured mouse neurons expressing CMT2A mutant MFN2; format: cell-based
Description: Neonatal mouse hippocampal neurons were cultured from brains of one day old Mfn2 T105M or non-transgenic sibling mouse pups as described. After 10 days of differentiating culture neurons were infected with Adeno-Cre to induce Mfn2 T105M expression or Adeno-βgal as a control (50 MOI). After an additional 72 hours mitofusin agonists or DMSO vehicle were added. For static confocal imaging neuronal mitochondria were labeled with adenoviral-expressed mitoGFP plus TMRE. Autophagy was measured by LC3 aggregation in neurons infected with adenoviral LC3-GFP. For time-lapse studies of mitochondrial trafficking bi-cistronic Adeno-Cre/GFP marked Cre expression and mitochondria were labeled with adeno-mitoDsRed. Confocal live cell images were acquired with a time-lapse of 1 frame every 90 seconds for 1 hour.

[3] = tested on: MFN2 T105M sciatic nerves; experiment: Sciatic nerve axonal mitochondrial motility, agonist applied to the excised nerve; set-up: species or system mouse
Description: Sciatic nerves of 12-18 week old male or female MFN2 T105M mice were removed en bloc with the lumbar spine and axotomy at the tibial nerve, stained with TMEM ([…]) for 30 minutes in prewarmed Neurobasal Medium without phenol red (Thermo Fisher Scientific) at room temperature, washed, and maintained on the stage of a Nikon A1Rsi Confocal Microscope at 37 degrees C. for time-lapse confocal studies. Images were acquired with a 40×oil immersion objective at 1 frame every 5 or 10 seconds for sequential 10 minute periods. Mitofusin agonist chimera B-A/I was added after the first 10 minute imaging period (final concentrations of […]) and nerve axons imaged for another 40 minutes. Because there was no difference in mitochondrial trafficking or response to mitofusin agonist between male and female mice, the data were combined.

[4] = tested on: MFN2 Asp^378 and Ala^378 mutants; experiment: Mitochondrial fusion with MFN2 Ser378 mutants (Asp378, Ala378); format: cell-based, human
MFN2 HR2 = target: T1, MFN2 HR2 (Homo sapiens, UniProt O95140); experiment: HR1 peptide-HR2 target binding assay; settings: FITC minipeptide 374-384 at HR2 binding site
T1 construct: host or cells: synthetic peptide (note in the listing); immobilised on Ni-NTA resin
T1 sequence (O95140 with tags, fused parts or gaps limits assumed): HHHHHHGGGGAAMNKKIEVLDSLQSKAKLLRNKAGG
Excerpt: The Mfn-derived fusion-promoting and -inhibiting mini-peptides (simulated to obtain the chemical Mfn agonists in TABLE 1 and TABLE 2) were modified from amino acid heptad repeats (HR) in the HR1 domain and predicted to interact with their counterparts in the carboxyl terminus HR2 domain within the Mfn stalk region (see e.g., FIG. 1, top panel). A high-throughput binding assay was designed whereby the target HR2 peptide sequences, modified to include amino terminal 6×His tags and Gly linkers, were bonded to Ni-chelate resin (20 μg/ml) and used as immobilized “receptor” for amino-FITC-tagged Mfn2 374-384 (agonist ligand) in which the Ser analogous to Ser378 was replaced with Asp to confer the negative charge essential for activity. For antagonist studies the ligand was amino-FITC-tagged Mfn2 406-418. The FITC peptide ligands are suspended at 1 mM in 30% DMSO, 70% water (to minimize spontaneous aggregation) and diluted into binding buffer (de-ionized water) to a final concentration of 25 μM in the presence or absence of competing compound. Dose-dependent loss of resin-bound FITC signal (485 nm excitation/538 nm emission) measured in a 96 well spectrofluorometer represents binding of compound to its HR2 target (see e.g., FIG. 10, FIG. 11). Either the ligand peptide or the receptor peptide can be modified to represent mutations, variations, or posttranslational modifications of Mfn2. […]
Target HR2 peptide sequence modified to include amino terminal 6×His tags and Gly linkers, were bonded to Ni-NTA resin (4.4 μg/ml) (Quiagen) and used as immobilized “receptor” for amino-FITC-tagged Mfn2 374-384 (ligand) in which the Ser analogous to Ser378 was replaced with Asp to confer the negative charge essential for activity. […] Resin-bound FITC signal (485 nm excitation/538 nm emission) measured in a 96 well spectrofluorometer (Spectramax M5e, Molecular Devices) represented binding to HR2 target. Competition binding isotherms were plotted and IC50 values calculated using Prism 7 (GraphPad).

MFN2 T105M = experiment: Reversal of mitochondrial dysmorphology provoked by MFN2 T105M in MEFs; format: cell-based, mouse
[5] = Human liver microsome stability assay; format: in vitro ADME; settings: human liver microsomes (FIG. 49)
Description: FIG. 49 is a series of structures and a graph showing dose-response and human liver microsomal stability data for fusogenic compounds from FIG. 22. […] T1/2 values are from human liver microsome stability assay.
(§1) Plasma protein binding was measured using equilibrium dialysis; % bound=(1-[free compound in dialysate]/[total compound in retentate])×100. Plasma stability of […] compound in clarified freeze-thawed plasma was assessed by LC-MS/MS of supernatants after protein precipitation; 120 min data are reported for studies including 0, 10, 30, 60, and 120 min. Microsome stability of […] compound in liver microsomes (0.5 mg/ml) after 0, 5, 10, 20, 30, 60 min. incubation was assessed by LC/MS/MS of reaction extracts.

[6] = In vivo pharmacokinetics in mice; settings: mouse, 1 mg/kg IM
Description: (A) Three mice each were administered 1 mg/kg agonist IV, IP, or IM. Graphs are mean plasma concentration for each administration route. (B) Results for individual mice were administered 1 mg/kg indicated agonist IM.

[7] = Parallel artificial membrane permeability assay (PAMPA); format: in vitro ADME
P-gp/MDR1 = P-gp/MDR1 (Homo sapiens, UniProt P08183); experiment: P-gp/MDR1 transport; format: in vitro ADME
Chain of P-gp/MDR1 (P08183 whole entry): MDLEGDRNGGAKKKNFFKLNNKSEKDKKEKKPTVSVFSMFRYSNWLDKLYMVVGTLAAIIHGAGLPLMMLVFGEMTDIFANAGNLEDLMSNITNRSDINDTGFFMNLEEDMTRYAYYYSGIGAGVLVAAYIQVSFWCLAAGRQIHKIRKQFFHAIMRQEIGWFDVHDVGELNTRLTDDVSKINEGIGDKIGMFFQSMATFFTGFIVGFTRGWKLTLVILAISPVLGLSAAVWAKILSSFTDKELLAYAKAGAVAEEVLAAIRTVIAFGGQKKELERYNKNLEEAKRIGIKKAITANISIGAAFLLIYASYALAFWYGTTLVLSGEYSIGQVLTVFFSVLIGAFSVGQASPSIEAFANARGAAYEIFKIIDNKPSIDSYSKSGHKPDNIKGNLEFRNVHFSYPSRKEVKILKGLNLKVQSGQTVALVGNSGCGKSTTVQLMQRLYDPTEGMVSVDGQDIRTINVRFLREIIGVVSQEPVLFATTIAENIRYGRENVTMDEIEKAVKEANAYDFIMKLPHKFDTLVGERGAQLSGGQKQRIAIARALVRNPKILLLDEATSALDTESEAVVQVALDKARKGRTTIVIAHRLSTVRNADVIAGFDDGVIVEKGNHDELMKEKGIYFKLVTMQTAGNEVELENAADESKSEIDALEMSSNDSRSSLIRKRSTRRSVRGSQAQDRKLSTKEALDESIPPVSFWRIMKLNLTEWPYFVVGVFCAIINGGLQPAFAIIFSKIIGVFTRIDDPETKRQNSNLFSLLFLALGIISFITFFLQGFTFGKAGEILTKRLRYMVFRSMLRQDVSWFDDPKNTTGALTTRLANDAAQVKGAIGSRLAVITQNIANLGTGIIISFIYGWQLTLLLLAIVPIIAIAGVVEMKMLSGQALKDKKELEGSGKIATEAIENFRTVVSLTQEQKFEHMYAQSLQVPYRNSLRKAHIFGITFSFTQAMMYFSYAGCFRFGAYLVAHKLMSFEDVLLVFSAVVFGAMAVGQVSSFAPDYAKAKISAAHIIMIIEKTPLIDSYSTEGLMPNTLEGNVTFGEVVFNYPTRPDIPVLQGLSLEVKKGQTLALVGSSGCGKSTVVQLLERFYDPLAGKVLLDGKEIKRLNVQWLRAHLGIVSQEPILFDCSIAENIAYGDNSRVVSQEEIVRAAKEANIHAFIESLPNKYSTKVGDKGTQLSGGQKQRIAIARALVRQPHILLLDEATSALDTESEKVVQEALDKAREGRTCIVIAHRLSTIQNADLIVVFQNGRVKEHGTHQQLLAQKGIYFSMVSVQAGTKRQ

[8] = Liver microsome stability; format: in vitro ADME
Description: as §1

[9] = Solubility in 50 mM phosphate buffer (pH 7.4); format: physicochemical
Plasma stability = format: in vitro ADME
Description: as §1

[10] = Plasma protein binding (equilibrium dialysis); format: in vitro ADME
Description: as §1

[11] = tested on: Mfn1/Mfn2 double null MEFs; experiment: Mitochondrial elongation in Mfn1/Mfn2 double null MEFs; format: cell-based, mouse
Excerpt: A cultured murine embryonic fibroblast assay system was used in which mitochondrial elongation (an increase in aspect ratio) reflects enhanced mitochondrial fusion.

[12] = ALS and HD patient-derived fibroblasts

CC1CCCCC1NC(=O)NCCSc1nnc(C2CC2)n1-c1ccccc1 (racemic) [B-A/I, 1-(2-((5-cyclopropyl-4-phenyl-4H-1,2,4-triazol-3-yl)thio)ethyl)-3-(2-methylcyclohexyl)urea]
Mitochondrial ROS levels [1, 12]: reduces mitochondrial ROS levels | Mitochondrial membrane potential [1, 12]: improves mitochondrial membrane potential | Mitochondrial structural defects [1, 12]: enhances mitochondrial structural defects | Effect on fibroblasts from control subjects ([1]; control fibroblasts): has no effect on fibroblasts from control subjects | Fusogenic activity (Mfn2 null MEFs): potently stimulated mitochondrial fusion | Mitochondrial motility in cultured neurons expressing MFN2 T105M [2]: restored mitochondrial motility | Mitochondrial motility in MFN2 T105M sciatic nerves [3]: restored mitochondrial motility to within normal levels | Selectivity of fusogenic effect for phosphomimic Asp378 vs nonphosphorylatable Ala378 MFN2 [4]: non-selective | Binding to / competition at HR2 target (MFN2 HR2): competed for minipeptide binding at the MFN2 HR2 interaction site | Reversal of mitochondrial dysmorphology provoked by MFN2 T105M (MFN2 T105M): as effective as the combination of Cpds A+B

Cn1c(SCC(=O)Nc2sc3c(c2C(N)=O)CCC3)nnc1-c1ccccc1 [1-B1, 2-{2-[(4-methyl-5-phenyl-4H-1,2,4-triazol-3-yl]sulfanyl]acetamido}-4H,5H,6H-cyclopenta[b]thiophene-3-carboxamide]
Fusogenic activity (Mfn2 null MEFs): more potent | % long compare to B (Mfn2 null MEFs): 107% | Resistance to liver microsomal degradation vs Cpd B [5]: greater resistance to liver microsomal degradation

CCn1c(SCC(=O)Nc2sc3c(c2C(N)=O)CCC3)nnc1C1CC1 [1-G11, 2-{2-[(5-cyclopropyl-4-ethyl-4H-1,2,4-triazol-3-yl)sulfanyl]acetamido}-4H,5H,6H-cyclopenta[b]thiophene-3-carboxamide]
Fusogenic activity (Mfn2 null MEFs): more potent | % long compare to B (Mfn2 null MEFs): 99% | Resistance to liver microsomal degradation vs Cpd B [5]: greater resistance to liver microsomal degradation

CC1CCCCC1NC(=O)NCCCc1nnc(C2CC2)n1-c1ccccc1 (stereo not drawn) [Regeneurin-C, 1-(3-(5-cyclopropyl-4-phenyl-4H-1,2,4-triazol-3-yl)propyl)-3-(2-methylcyclohexyl)urea]
total plasma drug concentration 2 hours after IM administration [6]: undetectable | Passive diffusion across lipid-infused artificial membrane (PAMPA, words) [7]: excellent passive diffusion | P-gp mediated transport (P-gp/MDR1): actively transported by P-gp/MDR1

CC1CCCCC1NC(=O)NCCSc1nnc(C2CC2)n1-c1ccccc1 (stereo not drawn) [Regeneurin-S, 1-(2-((5-cyclopropyl-4-phenyl-4H-1,2,4-triazol-3-yl)thio)ethyl)-3-(2-methylcyclohexyl)urea]
Liver microsome stability [8]: rapidly degraded by liver microsomes | Solubility [9]: soluble | Mitochondrial motility in MFN2 T105M sciatic nerves [3]: rapidly correct mitochondrial dysmotility | Plasma stability (Plasma stability): stable in plasma | Plasma protein binding [10]: highly protein bound

CC1CCCCC1NC(=O)NCCSCc1ccccc1 (stereo not drawn) [compound A, 1-[2-(benzylsulfanyl)ethyl]-3-(2-methylcyclohexyl)urea]
pEC50 (Mfn2 null MEFs; Mus musculus, increase in mitochondrial aspect ratio): 6.70 to 7.00 | Fusogenic activity (Mfn2 null MEFs): induced mitochondrial elongation | Selectivity of fusogenic effect for phosphomimic Asp378 vs nonphosphorylatable Ala378 MFN2 [4]: specific for the Asp^378 mutant of MFN2 | Mitochondrial elongation in absence of both mitofusins [11]: did not occur in the absence of both of their mitofusin targets

Ala^378 minipeptide: "(NH3) FITC-GGGG-AVRGIMDALHMAAR-GG (COOH) (FITC labeled Ala peptide) (SEQ ID NO: 28)" ({FITC}-GGGGAVRGIMDALHMAARGG-OH)
Binding to / competition at HR2 target (MFN2 HR2): did not

Ser^378 minipeptide: "(NH3) FITC-GGGG-AVRGIMDSLHMAAR-GG (COOH) (FITC labeled Ser peptide) (SEQ ID NO: 26)" ({FITC}-GGGGAVRGIMDSLHMAARGG-OH)
Binding to / competition at HR2 target (MFN2 HR2): did not
